Measurements published in US20090191193A1, “Aryl Vinyl Sulfides, Sulfones, Sulfoxides and Sulfonamides, Derivatives Thereof and Therapeutic Uses Thereof” (TEMPLE UNIVERSITY-OF THE COMMONWEALTH SYSTEM OF HIGHER …, priority 2006, published 2009).

Experiments:
[1] = test system: H157 (non small cell lung carcinoma); experiment: Effect on tumor cell lines, viable cell count by trypan blue exclusion (Latham et al.): H157; format: cell-based; conditions: Homo sapiens, NCI-H157, H157 non small cell lung carcinoma cells, viable cell count 96 hours after treatment
Protocol: (§1) The effect of the compounds of the invention on tumor cells was determined by the assay described by Latham et al., Oncogene 12:827-837 (1996). Tumor cells DU145 (prostate cancer), K562 (chronic myelogenous leukaemia), BT20 (breast carcinoma), H157 (non small cell lung carcinoma), or DLD1 (colon carcinoma) were plated in 6-well dishes at a cell density of 1.0×10^5 cells per 35-mm^2 well. The plated cells were treated 24 hours later with a compound of the invention dissolved in DMSO at multiple concentrations ranging from 100 nM to 10 μM. The total number of viable cells was determined 96 hours later by trypsinizing the wells and counting the number of viable cells, as determined by trypan blue exclusion, using a hemacytometer. Normal HFL cells were treated with the same compounds under the same conditions of concentration and time.

[2] = test system: DLD1 (colon carcinoma); experiment: Effect on tumor cell lines, viable cell count by trypan blue exclusion (Latham et al.): DLD1; format: cell-based; conditions: Homo sapiens, DLD-1, DLD1 colon carcinoma cells, viable cell count 96 hours after treatment
Protocol: as §1

[3] = test system: DU145 (prostate cancer); experiment: Effect on tumor cell lines, viable cell count by trypan blue exclusion (Latham et al.): DU145; format: cell-based; conditions: DU145 prostate cancer cells, viable cell count 96 hours after treatment
[4] = test system: BT20 (breast carcinoma); experiment: Effect on tumor cell lines, viable cell count by trypan blue exclusion (Latham et al.): BT20; format: cell-based; conditions: Homo sapiens, BT-20, BT20 breast carcinoma cells, viable cell count 96 hours after treatment
Protocol: as §1

[5] = test system: K562 (chronic myelogenous leukaemia); experiment: Effect on tumor cell lines, viable cell count by trypan blue exclusion (Latham et al.): K562; format: cell-based; conditions: K562 chronic myelogenous leukaemia cells, viable cell count 96 hours after treatment

Structure (SMILES)	melting point	IC50 [1]	IC50 [2]	IC50 ([3]; Homo sapiens, DU-145, 96 h)	IC50 [4]	IC50 ([5]; Homo sapiens, K562, 96 h)	IC50 [5]	IC50 [3]
NC(=O)/C(=C\c1ccc(Cl)cc1)S(=O)(=O)Cc1ccc(Cl)cc1Cl [Example 150]	201 to 205 °C	> 20 µM	> 20 µM	> 20 µM	> 20 µM			
COc1ccc(CS(=O)(=O)/C(=C/c2ccc(F)cc2)C(N)=O)cc1 [Example 172]	158 to 161 °C	> 20 µM	> 20 µM	> 20 µM	> 20 µM			
COc1ccc(CS(=O)(=O)/C(=C/c2c(OC)cccc2OC)C(N)=O)cc1 [Example 173]	166 to 168 °C	> 20 µM	> 20 µM	> 20 µM	> 20 µM			
COc1cc(OC)c(/C=C(\C(N)=O)S(=O)(=O)Cc2ccc(Cl)cc2)c(OC)c1 [Example 174]	176 to 178 °C	> 20 µM	> 20 µM	> 20 µM	> 20 µM			
COc1cccc(OC)c1/C=C(\C(N)=O)S(=O)(=O)Cc1ccc(Cl)cc1 [Example 175]	150 to 154 °C	10 to 20 µM	10 to 20 µM	10 to 20 µM	10 to 20 µM			
NC(=O)/C(=C\c1ccc([N+](=O)[O-])cc1)S(=O)(=O)Cc1ccc(Cl)cc1 [Example 176]	190 to 192 °C	> 20 µM	> 20 µM	> 20 µM	> 20 µM			
NC(=O)/C(=C\c1ccc(F)cc1)S(=O)(=O)c1ccccc1 [Example 177]	151 to 154 °C	1 to 10 µM	1 to 10 µM	1 to 10 µM	1 to 10 µM			
COc1cccc(OC)c1/C=C(\C(N)=O)S(=O)(=O)c1ccccc1 [Example 179]	168 to 172 °C	10 to 20 µM	10 to 20 µM	10 to 20 µM	10 to 20 µM			
COc1ccc(S(=O)(=O)/C(=C/c2c(OC)cccc2OC)C(N)=O)cc1 [Example 183]	160 to 162 °C	> 20 µM	> 20 µM	> 20 µM	> 20 µM			
COc1ccc(S(=O)(=O)/C(=C/c2ccc([N+](=O)[O-])cc2)C(N)=O)cc1 [Example 184]	172 to 174 °C	> 20 µM	> 20 µM	> 20 µM	> 20 µM			
COc1ccc(/C=C(\C#N)S(=O)(=O)Nc2ccc(C)cc2C)c(OC)c1OC [Example 272]	124 to 125 °C			> 100 µM		> 100 µM		
CCOc1ccc(/C=C(\C#N)S(=O)(=O)Nc2ccc(C)cc2C)cc1OC [Example 273]	146 to 150 °C			> 100 µM		> 100 µM		
Cc1ccc(NS(=O)(=O)/C(C#N)=C/c2ccc(Cl)c(Cl)c2)c(C)c1 [Example 274]	141 to 143 °C			50 to 100 µM		50 to 100 µM		
CCOc1cc(/C=C(\C#N)S(=O)(=O)Nc2ccc(C)cc2C)ccc1O [Example 275]	146 to 148 °C			> 100 µM		50 to 100 µM		
COc1ccc(NS(=O)(=O)/C(C#N)=C/c2ccccc2OCc2ccccc2)cc1 [Example 277]	111 to 112 °C			10 to 25 µM		10 to 25 µM		
COc1ccc(NS(=O)(=O)/C(C#N)=C/c2c[nH]c3ccccc23)cc1 [Example 278]	201 to 205 °C			50 to 100 µM		50 to 100 µM		
COc1ccc(NS(=O)(=O)/C(C#N)=C/c2c(OC)cc(OC)cc2OC)cc1 [Example 279]	151 to 154 °C						10 to 25 µM	25 to 50 µM
COc1ccc(NS(=O)(=O)/C(C#N)=C/c2ccc(N(C)C)cc2)cc1 [Example 280]	166 to 169 °C			> 100 µM		50 to 100 µM		

Next, values leading:

melting point	IC50 [1]	IC50 [2]	IC50 ([3]; Homo sapiens, DU-145, 96 h)	IC50 [4]	IC50 ([5]; Homo sapiens, K562, 96 h)	IC50 [5]	IC50 [3]	Structure (SMILES)
154 to 156 °C			> 100 µM		> 100 µM			COc1ccc(NS(=O)(=O)/C(C#N)=C/c2sccc2C)cc1 [Example 281]
125 to 127 °C			50 to 100 µM		50 to 100 µM			COc1ccc(NS(=O)(=O)/C(C#N)=C/c2cc(C)ccc2C)cc1 [Example 282]
118 to 121 °C			> 100 µM		> 100 µM			COc1ccc(NS(=O)(=O)/C(C#N)=C/c2ccc(C)s2)cc1 [Example 283]
171 to 173 °C			> 100 µM		25 to 50 µM			COc1ccc(NS(=O)(=O)/C(C#N)=C/c2cc(OC)c(OC)cc2OC)cc1 [Example 284]
140 to 142 °C			> 100 µM		50 to 100 µM			COc1ccc(NS(=O)(=O)/C(C#N)=C/c2ccc(OC)c(OC)c2OC)cc1 [Example 285]
111 to 113 °C			> 100 µM		> 100 µM			CCOc1ccc(/C=C(\C#N)S(=O)(=O)Nc2ccc(OC)cc2)cc1OC [Example 287]
84 to 86 °C			50 to 100 µM		25 to 50 µM			COc1ccc(NS(=O)(=O)/C(C#N)=C/c2ccc(Cl)c(Cl)c2)cc1 [Example 288]
181 to 182 °C			> 100 µM		50 to 100 µM			COc1ccc(NS(=O)(=O)/C(C#N)=C/c2ccc(O)cc2)cc1 [Example 289]
95 to 96 °C			50 to 100 µM		25 to 50 µM			COc1ccc(NS(=O)(=O)/C(C#N)=C/c2ccc(Cl)cc2)cc1 [Example 290]
102 to 103 °C						50 to 100 µM	50 to 100 µM	COc1ccc(NS(=O)(=O)/C(C#N)=C/c2ccc(Br)cc2)cc1 [Example 291]
197 to 198 °C			> 100 µM		50 to 100 µM			COc1ccc(NS(=O)(=O)/C(C#N)=C/c2ccccc2O)cc1 [Example 292]
